Data taken from ChEMBL document CHEMBL1201862, “PubChem BioAssay data set” (2004).
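Cells were grown in 96-well plates and exposed to each compound for 48 hours at five concentrations; endpoints were interpolated linearly between bracketing concentrations, or set to the highest concentration if not reached. At the GI50, growth is halved.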 Calls of active or inactive are those of the source. No stated cut-off is given here; in the data, active = GI50 up to about 1.1 µM and inactive = higher.

Key:
Assay in all cases: DTP human tumour cell line panel, 48 h
786-0 = test system: 786-0
A498 = test system: A498
A549 = test system: A549
ACHN = test system: ACHN
BT-549 = test system: BT-549
COLO 205 = test system: COLO 205
DU-145 = test system: DU-145
HCC 2998 = test system: HCC 2998
HCT-116 = test system: HCT-116
HCT-15 = test system: HCT-15
HL-60 = test system: HL-60
HOP-62 = test system: HOP-62
HOP-92 = test system: HOP-92
HT-29 = test system: HT-29
Hs-578T = test system: Hs-578T
IGROV-1 = test system: IGROV-1
K562 = test system: K562
LOX IMVI = test system: LOX IMVI
M14 = test system: M14
MCF7 = test system: MCF7
MDA-MB-231 = test system: MDA-MB-231
MDA-MB-435 = test system: MDA-MB-435
Malme-3M = test system: Malme-3M
NCI-H226 = test system: NCI-H226
NCI-H23 = test system: NCI-H23
NCI-H460 = test system: NCI-H460
NCI/ADR-RES = test system: NCI/ADR-RES
OVCAR-3 = test system: OVCAR-3
OVCAR-4 = test system: OVCAR-4
OVCAR-5 = test system: OVCAR-5
OVCAR-8 = test system: OVCAR-8
PC-3 = test system: PC-3
RPMI-8226 = test system: RPMI-8226
RXF 393 = test system: RXF 393
SF-268 = test system: SF-268
SF-539 = test system: SF-539
SK-MEL-28 = test system: SK-MEL-28
SK-MEL-2 = test system: SK-MEL-2
SK-MEL-5 = test system: SK-MEL-5
SK-OV-3 = test system: SK-OV-3
SN12C = test system: SN12C
SNB-19 = test system: SNB-19
SNB-75 = test system: SNB-75
SW-620 = test system: SW-620
T47D = test system: T47D
TK-10 = test system: TK-10
U-251 = test system: U-251
UACC-257 = test system: UACC-257
UACC-62 = test system: UACC-62
UO-31 = test system: UO-31
CAKI-1 = test system: CAKI-1
EKVX = test system: EKVX
KM12 = test system: KM12
MOLT-4 = test system: MOLT-4
NCI-H522 = test system: NCI-H522
SF-295 = test system: SF-295
SR = test system: SR
CCRF-CEM = test system: CCRF-CEM

## CC(SC(=S)N1CCCCC1)C(=O)Nc1nnc(-c2ccc(Cl)cc2)o1 (centres undefined)
786-0
  GI50: 16.9 µM (inactive)
A498
  GI50: 22.9 µM (inactive)
A549
  GI50: 30.3 µM (inactive)
ACHN
  GI50: 30.5 µM (inactive)
BT-549
  GI50: 51.2 µM (inactive)
COLO 205
  GI50: 34.9 µM (inactive)
DU-145
  GI50: 32.1 µM (inactive)
HCC 2998
  GI50: 34.8 µM (inactive)
HCT-116
  GI50: 17.7 µM (inactive)
HCT-15
  GI50: 13 µM
HL-60
  GI50: 0.575 µM (active)
HOP-62
  GI50: 11.8 µM (inactive)
HOP-92
  GI50: 45.8 µM (inactive)
HT-29
  GI50: 23 µM (inactive)
Hs-578T
  GI50: 40.6 µM (inactive)
IGROV-1
  GI50: 32 µM (inactive)
K562
  GI50: 41.4 µM (inactive)
LOX IMVI
  GI50: 23.6 µM (inactive)
M14
  GI50: 20.1 µM (inactive)
MCF7
  GI50: 25.8 µM (inactive)
MDA-MB-231
  GI50: 26.7 µM (inactive)
MDA-MB-435
  GI50: 34.1 µM (inactive)
Malme-3M
  GI50: 19.1 µM (inactive)
NCI-H226
  GI50: 38.5 µM (inactive)
NCI-H23
  GI50: 42.1 µM (inactive)
NCI-H460
  GI50: 27.2 µM (inactive)
NCI/ADR-RES
  GI50: 17.5 µM (inactive)
OVCAR-3
  GI50: 11 µM (inactive)
OVCAR-4
  GI50: 27.4 µM (inactive)
OVCAR-5
  GI50: 51.8 µM (inactive)
OVCAR-8
  GI50: 38.5 µM (inactive)
PC-3
  GI50: 24.2 µM (inactive)
RPMI-8226
  GI50: 20.2 µM (inactive)
RXF 393
  GI50: 31.6 µM (inactive)
SF-268
  GI50: 17.5 µM (inactive)
SF-539
  GI50: 58.7 µM (inactive)
SK-MEL-28
  GI50: 63.7 µM (inactive)
SK-MEL-2
  GI50: 21.7 µM (inactive)
SK-MEL-5
  GI50: 32.1 µM (inactive)
SK-OV-3
  GI50: 21.5 µM (inactive)
SN12C
  GI50: 17.5 µM (inactive)
SNB-19
  GI50: 31.4 µM (inactive)
SNB-75
  GI50: 20.1 µM (inactive)
SW-620
  GI50: 36.2 µM (inactive)
T47D
  GI50: 36.8 µM (inactive)
TK-10
  GI50: 50.6 µM (inactive)
U-251
  GI50: 24.7 µM (inactive)
UACC-257
  GI50: 37.5 µM (inactive)
UACC-62
  GI50: 25.2 µM (inactive)
UO-31
  GI50: 17.8 µM (inactive)

## COC(=O)/C=C\S/C(=C(/c1ccccc1)n1ccc(C(=O)OC)n1)c1ccccc1
786-0
  GI50: 12.4 µM (inactive)
A549
  GI50: 36.6 µM (inactive)
ACHN
  GI50: 7.48 µM (inactive)
BT-549
  GI50: > 100 µM (inactive)
CAKI-1
  GI50: > 100 µM (inactive)
COLO 205
  GI50: > 100 µM (inactive)
EKVX
  GI50: 26.5 µM (inactive)
HCC 2998
  GI50: 41 µM (inactive)
HCT-116
  GI50: 20.5 µM (inactive)
HCT-15
  GI50: > 100 µM
HL-60
  GI50: > 100 µM (inactive)
HOP-62
  GI50: 15.8 µM (inactive)
HOP-92
  GI50: 20.9 µM (inactive)
HT-29
  GI50: > 100 µM (inactive)
Hs-578T
  GI50: 26.6 µM (inactive)
IGROV-1
  GI50: 58.6 µM (inactive)
K562
  GI50: > 100 µM (inactive)
KM12
  GI50: > 100 µM (inactive)
LOX IMVI
  GI50: > 100 µM (inactive)
M14
  GI50: 43.1 µM (inactive)
MCF7
  GI50: 8.77 µM (inactive)
MDA-MB-231
  GI50: 9.82 µM (inactive)
MDA-MB-435
  GI50: 45.4 µM (inactive)
MOLT-4
  GI50: 56.6 µM (inactive)
Malme-3M
  GI50: 23.7 µM (inactive)
NCI-H226
  GI50: > 100 µM (inactive)
NCI-H23
  GI50: 22.8 µM (inactive)
NCI-H460
  GI50: 66.4 µM (inactive)
NCI-H522
  GI50: 24.5 µM (inactive)
NCI/ADR-RES
  GI50: 47.6 µM (inactive)
OVCAR-4
  GI50: 21.9 µM (inactive)
OVCAR-5
  GI50: > 100 µM (inactive)
OVCAR-8
  GI50: 35.9 µM (inactive)
PC-3
  GI50: 16.7 µM (inactive)
RPMI-8226
  GI50: 38.9 µM (inactive)
RXF 393
  GI50: 13.1 µM (inactive)
SF-268
  GI50: 20.5 µM (inactive)
SF-295
  GI50: 20.3 µM (inactive)
SF-539
  GI50: 40.2 µM (inactive)
SK-MEL-28
  GI50: 28.6 µM (inactive)
SK-MEL-2
  GI50: 15.7 µM (inactive)
SK-MEL-5
  GI50: 29.5 µM (inactive)
SK-OV-3
  GI50: 19.9 µM (inactive)
SN12C
  GI50: 37.5 µM (inactive)
SNB-19
  GI50: 12.7 µM (inactive)
SNB-75
  GI50: 6.04 µM (inactive)
SR
  GI50: > 100 µM (inactive)
SW-620
  GI50: 82.8 µM (inactive)
T47D
  GI50: 24.5 µM (inactive)
TK-10
  GI50: 25.6 µM (inactive)
U-251
  GI50: 13 µM (inactive)
UACC-257
  GI50: 45.3 µM (inactive)
UACC-62
  GI50: 3.23 µM (inactive)
UO-31
  GI50: 13.7 µM (inactive)

## O=S(=O)(O)c1ccccc1/N=N\c1ccc(/N=N/c2c(O)ccc3ccccc23)c(S(=O)(=O)O)c1
786-0
  GI50: > 100 µM (inactive)
A549
  GI50: > 100 µM (inactive)
ACHN
  GI50: > 100 µM (inactive)
BT-549
  GI50: > 100 µM (inactive)
CAKI-1
  GI50: > 100 µM (inactive)
CCRF-CEM
  GI50: 83.6 µM (inactive)
COLO 205
  GI50: > 100 µM (inactive)
DU-145
  GI50: > 100 µM (inactive)
EKVX
  GI50: > 100 µM (inactive)
HCT-116
  GI50: > 100 µM (inactive)
HCT-15
  GI50: > 100 µM
HOP-62
  GI50: > 100 µM (inactive)
HOP-92
  GI50: > 100 µM (inactive)
HT-29
  GI50: > 100 µM (inactive)
Hs-578T
  GI50: > 100 µM (inactive)
IGROV-1
  GI50: > 100 µM (inactive)
K562
  GI50: > 100 µM (inactive)
KM12
  GI50: > 100 µM (inactive)
M14
  GI50: > 100 µM (inactive)
MDA-MB-231
  GI50: > 100 µM (inactive)
MDA-MB-435
  GI50: > 100 µM (inactive)
MOLT-4
  GI50: > 100 µM (inactive)
Malme-3M
  GI50: 19.4 µM (inactive)
NCI-H226
  GI50: > 100 µM (inactive)
NCI-H23
  GI50: > 100 µM (inactive)
NCI-H522
  GI50: > 100 µM (inactive)
NCI/ADR-RES
  GI50: > 100 µM (inactive)
OVCAR-3
  GI50: > 100 µM (inactive)
OVCAR-4
  GI50: > 100 µM (inactive)
OVCAR-5
  GI50: > 100 µM (inactive)
OVCAR-8
  GI50: > 100 µM (inactive)
PC-3
  GI50: > 100 µM (inactive)
RPMI-8226
  GI50: > 100 µM (inactive)
RXF 393
  GI50: > 100 µM (inactive)
SF-268
  GI50: > 100 µM (inactive)
SF-295
  GI50: > 100 µM (inactive)
SK-MEL-28
  GI50: > 100 µM (inactive)
SK-MEL-2
  GI50: > 100 µM (inactive)
SK-MEL-5
  GI50: > 100 µM (inactive)
SK-OV-3
  GI50: > 100 µM (inactive)
SN12C
  GI50: > 100 µM (inactive)
SNB-19
  GI50: > 100 µM (inactive)
SNB-75
  GI50: > 100 µM (inactive)
SW-620
  GI50: > 100 µM (inactive)
T47D
  GI50: > 100 µM (inactive)
TK-10
  GI50: > 100 µM (inactive)
U-251
  GI50: > 100 µM (inactive)
UACC-257
  GI50: > 100 µM (inactive)
UACC-62
  GI50: > 100 µM (inactive)
UO-31
  GI50: > 100 µM (inactive)
